In data set [1] the test system is MDR1 (P-gp). As to the kind of experiment: Permeability from apical to basolateral side in dog MDCK cells expressing human MDR-1 gene. In kind it is ADME, cell-based, Canis lupus familiaris. Particulars: read-out: permeability.
Data set [2] addresses Cathepsin D (Homo sapiens, UniProt P07339). The data set can be described thus: Inhibition of human cathepsin D.
For data set [3], the target named is T1, Beta-secretase 1 (Homo sapiens, UniProt P56817). The data set can be described thus: Inhibition of human BACE-1.
In data set [4] the test system is MDR1 (P-gp). The data set can be described thus: Efflux ratio of permeability from basolateral to apical side to apical to basolateral side of dog MDCK cells expressing human MDR1. It counts as ADME, cell-based, Canis lupus familiaris.
Data set [5] deals with MDR1 (P-gp). The data set can be described thus: Permeability from basolateral to apical side in dog MDCK cells expressing human MDR-1 gene. In kind it is ADME, cell-based, Canis lupus familiaris. Particulars: read-out: permeability.
Data set [6] can be described thus: Dissociation constant, pKa of the compound. It counts as physicochemical.
The target of data set [7] is T1, Beta-secretase 1. As to the kind of experiment: Inhibition of human BACE-1-mediated amyloid beta 40 release in APP-transfected […] cells. It counts as cell-based.
Data set [8] concerns Brain. As to the kind of experiment: Drug level in brain of mouse at 2 umol/kg, iv. It counts as ADME, organism-based. The settings on record: in vivo, read-out: Drug uptake.
Data set [9] concerns Plasma. The data set can be described thus: Drug level in plasma of mouse at 2 umol/kg, iv. It counts as ADME. Particulars: read-out: Drug uptake.
The species named for data set [10] is Homo sapiens. The data set can be described thus: Selectivity ratio of IC50 for human cathepsin D to IC50 for human BACE-1.
A short description of data set [11]: Metabolic stability in rat liver microsomes assessed as half life. It counts as ADME, Microsome. (In general: Liver microsomes are vesicles of endoplasmic reticulum, rich in cytochrome P450 enzymes.)

Each structure is given as a SMILES string.

Cathepsin D, sequence (P07339 65-162 limits assumed): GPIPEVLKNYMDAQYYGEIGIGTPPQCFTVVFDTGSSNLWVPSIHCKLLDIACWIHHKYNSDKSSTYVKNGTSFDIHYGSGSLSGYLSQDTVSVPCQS
Cathepsin D, sequence (P07339 169-412 limits assumed): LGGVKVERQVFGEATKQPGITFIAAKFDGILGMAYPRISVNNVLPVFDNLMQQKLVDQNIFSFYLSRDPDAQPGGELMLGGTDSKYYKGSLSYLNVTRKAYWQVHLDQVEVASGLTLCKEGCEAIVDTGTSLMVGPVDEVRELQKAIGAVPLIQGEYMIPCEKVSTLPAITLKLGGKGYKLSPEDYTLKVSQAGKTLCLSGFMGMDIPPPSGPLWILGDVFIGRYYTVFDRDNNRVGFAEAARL
T1 sequence (P56817 whole entry): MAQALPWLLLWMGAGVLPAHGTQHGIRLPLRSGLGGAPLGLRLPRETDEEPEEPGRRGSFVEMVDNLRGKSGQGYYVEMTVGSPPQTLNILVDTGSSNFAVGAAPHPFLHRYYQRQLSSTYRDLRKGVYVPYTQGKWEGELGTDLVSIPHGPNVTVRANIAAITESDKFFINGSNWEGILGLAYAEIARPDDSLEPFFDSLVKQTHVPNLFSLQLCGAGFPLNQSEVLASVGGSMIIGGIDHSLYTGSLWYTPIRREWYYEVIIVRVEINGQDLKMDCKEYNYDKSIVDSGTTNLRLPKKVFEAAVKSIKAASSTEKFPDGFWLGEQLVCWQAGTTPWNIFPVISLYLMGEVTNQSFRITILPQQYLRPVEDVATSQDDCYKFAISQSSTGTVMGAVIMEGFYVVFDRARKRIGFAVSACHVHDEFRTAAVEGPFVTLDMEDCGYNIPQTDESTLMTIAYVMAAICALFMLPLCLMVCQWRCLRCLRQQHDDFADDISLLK

The term IC50 denotes the concentration at which inhibition is half-maximal. The efflux ratio is a quotient of directional permeabilities that is used to spot active efflux. Consider `CCc1cc(C[C@@H]2CS(=O)(=O)C[C@H](NCc3cccc(C(C)C)c3)[C@H]2O)ccc1O`, for which the Papp A→B in data set [1] was 15 ×10⁻⁶ cm/s. Also, the IC50 in data set [2] was 2400 nM; in data set [3], 370 nM. In [4], the efflux ratio was found to be 3.1. Also, the Papp B→A in data set [5] came to 45 ×10⁻⁶ cm/s.

For orientation: pKa means the pH at which an ionisable group is half protonated. Lower therefore signals a group that gives up its proton readily. In turn, `O=S1(=O)C[C@@H](Cc2ccc(O)c(Br)c2)[C@H](O)[C@@H](NCc2cccc(C3CC3)c2)C1` had a pKa in [6] of 5.7.

`O=S1(=O)C[C@@H](Cc2ccc(O)c(Br)c2)[C@H](O)[C@@H](NCc2ccccc2)C1`: it took 66000 nM to reach half-maximal inhibition in [3] (IC50).

Regarding `CC(C)c1cccc(CN[C@H]2CS(=O)(=O)C[C@@H](Cc3ccc(O)c(CCO)c3)[C@@H]2O)c1`, in [1], the Papp A→B was 0.9 ×10⁻⁶ cm/s. Further, the IC50 was determined as 1700 nM in data set [2] and 990 nM in data set [3]. In data set [4], the efflux ratio was 32. Also, the Papp B→A in data set [5] was found to be 28 ×10⁻⁶ cm/s.

On to `CCCCc1cc(C[C@@H]2CS(=O)(=O)C[C@H](NCc3cccc(C(C)C)c3)[C@H]2O)ccc1O`, for which, in [1], the Papp A→B was 0.8 ×10⁻⁶ cm/s. The figures for the IC50 in data set [2] and in data set [3] were 1900 nM and 150 nM, respectively. Also, the efflux ratio in data set [4] amounted to 5.5. The Papp B→A in data set [5] stood at 4.2 ×10⁻⁶ cm/s.

Turning to `CC(C)c1cccc(CN[C@H]2CS(=O)(=O)C[C@@H](Cc3ccc(O)c(CO)c3)[C@@H]2O)c1`, the Papp A→B in data set [1] is 1.8 ×10⁻⁶ cm/s. Further, the IC50 in data set [2] worked out at 2100 nM; in data set [3], 1200 nM. The efflux ratio in data set [4] was found to be 17. For the same compound, the Papp B→A in [5] came to 30 ×10⁻⁶ cm/s.

In the case of `CNC(=O)Oc1ccc(C[C@@H]2CS(=O)(=O)C[C@H](NCc3cccc(C(C)C)c3)[C@H]2O)cc1Br`, in [1], the Papp A→B was determined as 3.8 ×10⁻⁶ cm/s. Further, the values for the IC50 in data set [2] and in data set [3] were 370 nM and 60 nM, respectively. For the same compound, in data set [4], the efflux ratio amounted to 23. The Papp B→A in [5] was 88 ×10⁻⁶ cm/s.

For the compound `CCCOc1cccc(C[C@@H]2CS(=O)(=O)C[C@H](NCc3cccc(C(C)C)c3)[C@H]2O)c1` (racemic), the Papp A→B in data set [1] was 5.7 ×10⁻⁶ cm/s. For the same compound, the results for the half-maximal inhibitory concentration (IC50) in data set [2] and in [3] were 2000 nM and 2300 nM, respectively. The efflux ratio in data set [4] was determined as 1.4. Further, in data set [5], the Papp B→A was determined as 7.9 ×10⁻⁶ cm/s.

Consider `O=S1(=O)C[C@@H](Cc2ccc(O)c(Br)c2)[C@H](O)[C@@H](NCc2cc(Cl)cc(Cl)c2)C1`, for which, in [3], the IC50 turned out to be 4200 nM.

`CCCOCc1cccc(C[C@@H]2CS(=O)(=O)C[C@H](NCc3cccc(C(C)C)c3)[C@H]2O)c1` (racemic): the Papp A→B in data set [1] was 7 ×10⁻⁶ cm/s. Moreover, the IC50 in [2] turned out to be 900 nM; in data set [3], 1100 nM. In addition, the efflux ratio in data set [4] was 1.8. In data set [5], the Papp B→A stood at 13 ×10⁻⁶ cm/s.

Regarding `COc1ccc(C[C@@H]2CS(=O)(=O)C[C@H](NCc3cccc(C(C)C)c3)[C@H]2O)cc1Br`, the Papp A→B in data set [1] was found to be 3.7 ×10⁻⁶ cm/s. For the same compound, the IC50 in [2] worked out at 2400 nM; in data set [3] it was 2800 nM. Moreover, the efflux ratio in data set [4] came out at 2.6. Besides, the Papp B→A in data set [5] was found to be 9.7 ×10⁻⁶ cm/s.

Consider `Cc1cccc(Cc2cc(C[C@@H]3CS(=O)(=O)C[C@H](NCc4cccc(C(C)C)c4)[C@H]3O)ccc2O)c1` (racemic), for which the IC50 in data set [2] was determined as 7100 nM; in [3], 6200 nM.

Consider `CC(C)Oc1cccc(CN[C@H]2CS(=O)(=O)C[C@@H](Cc3ccc(O)c(Br)c3)[C@@H]2O)c1`, for which the IC50 in data set [7] was 8500 nM; in data set [2], 670 nM; in data set [3], 1400 nM.

`CC(C)c1cccc(CN[C@H]2CS(=O)(=O)C[C@@H](Cc3cccc(Br)c3)[C@@H]2O)c1` (racemic): in [1], the Papp A→B is 5.4 ×10⁻⁶ cm/s. Moreover, the IC50 was determined as 2300 nM in data set [2] and 760 nM in [3]. Besides, in [4], the efflux ratio was 1.4. Further, the Papp B→A in [5] came out at 7.7 ×10⁻⁶ cm/s.

As to `CCCc1cc(C[C@@H]2CS(=O)(=O)C[C@H](NCc3cccc(C(C)C)c3)[C@H]2O)ccc1O`, the Papp A→B in data set [1] was 4.2 ×10⁻⁶ cm/s. The values for the IC50 in data set [2] and in data set [3] were 1800 nM and 190 nM, respectively. In data set [4], the efflux ratio came out at 4.4. The Papp B→A in data set [5] amounted to 18 ×10⁻⁶ cm/s.

The term half-life denotes the time needed for the level to fall by half in the phase considered. `CC(C)c1cccc(CN[C@H]2CS(=O)(=O)C[C@@H](Cc3ccc(O)c(Br)c3)[C@@H]2O)c1`: the Papp A→B in data set [1] was 11 ×10⁻⁶ cm/s. Also, the half-maximal inhibitory concentration (IC50) in [7] came out at 1500 nM; in data set [2], 1200 nM; in data set [3], 300 nM. The concentration was determined as 210 nM in data set [8] and 1030 nM in data set [9]. Moreover, the Ratio IC50 in data set [10] came to 10. Also, in data set [11], the half-life stood at 3 min. For the same compound, the efflux ratio in [4] came to 3. Also, the Papp B→A in [5] stood at 33 ×10⁻⁶ cm/s.

Compound `CC(C)c1cccc(CN[C@H]2COC[C@@H](Cc3ccc(O)c(Br)c3)[C@@H]2O)c1` displayed an IC50 in data set [3] of 55000 nM. In addition, the pKa in data set [6] amounted to 7.1.

`CC(C)c1ccnc(CN[C@H]2CS(=O)(=O)C[C@@H](Cc3ccc(O)c(Br)c3)[C@@H]2O)c1` returned an IC50 in data set [3] of 4300 nM.

`CCCN1C(=O)OC[C@@H]1Cc1cc(C[C@@H]2CS(=O)(=O)C[C@H](NCc3cccc(C(C)C)c3)[C@H]2O)ccc1O`: the Papp A→B in data set [1] is 1.4 ×10⁻⁶ cm/s. The concentration in data set [8] was less than 50 nM; in [9] it was 670 nM. For the same compound, the half-life in [11] came out at 4 min. This compound also had an IC50 in [2] of 6400 nM. In addition, the efflux ratio in data set [4] amounted to 19. Besides, the Papp B→A in data set [5] worked out at 26 ×10⁻⁶ cm/s.

Take `CC(=O)N[C@@H](Cc1cc(F)cc(F)c1)[C@H](O)CNCc1cccc(C(C)C)c1`: the Papp A→B in data set [1] amounted to 2.2 ×10⁻⁶ cm/s. In addition, the IC50 in data set [2] came out at 4700 nM; in [3] it was 3200 nM. Further, the efflux ratio in [4] worked out at 18. In [5], the Papp B→A was found to be 41 ×10⁻⁶ cm/s.

Take `N[C@H]1CS(=O)(=O)C[C@@H](Cc2ccc(O)c(Br)c2)[C@@H]1O`: in data set [3], the half-maximal inhibitory concentration (IC50) is greater than 100000 nM.

Regarding `CC(C)c1cccc(CN[C@H]2CS(=O)(=O)C[C@@H](Cc3ccc(O)cc3)[C@@H]2O)c1` (racemic), the Papp A→B in [1] turned out to be 9 ×10⁻⁶ cm/s. In addition, the IC50 in data set [2] stood at 5400 nM; in data set [3], 1800 nM. The efflux ratio in data set [4] is 4.2. Besides, the Papp B→A in [5] was found to be 37 ×10⁻⁶ cm/s.

In the case of `CC(C)c1cccc(CN[C@H]2CS(=O)(=O)C[C@@H](Cc3ccccc3)[C@@H]2O)c1` (racemic), in data set [1], the Papp A→B was 19 ×10⁻⁶ cm/s. The IC50 in data set [2] was 1900 nM; in data set [3], 1100 nM. Besides, the efflux ratio in data set [4] was found to be 1.2. Moreover, in data set [5], the Papp B→A stood at 24 ×10⁻⁶ cm/s.

For the compound `CC(C)(C)c1cccc(CN[C@H]2CS(=O)(=O)C[C@@H](Cc3ccc(O)c(Br)c3)[C@@H]2O)c1`, the Papp A→B in [1] was 7.7 ×10⁻⁶ cm/s. Moreover, the IC50 in data set [7] is 550 nM; in data set [2], 420 nM; in data set [3], 55 nM. In addition, the figures for the concentration in [8] and in data set [9] were 180 nM and 320 nM, respectively. The half-life in [11] is 6 min. In addition, the efflux ratio in [4] turned out to be 2.1. Moreover, in [5], the Papp B→A was found to be 16 ×10⁻⁶ cm/s.

The values above are taken from ChEMBL document CHEMBL1759891, “Structure based design, synthesis and SAR of cyclic hydroxyethylamine (HEA) BACE-1 inhibitors” (Bioorg Med Chem Lett, 2011).
